Results from the NIST ThermoML archive (doi:10.1021/je700671t).
Numbers after ± are expanded uncertainties.

Experiments:
[1] = 101 kPa, Liquid; for viscosity: Capillary tube (Ostwald / Ubbelohde) method
[2] = xn = mol fraction of the nth substance listed; conditions: 101 kPa, Liquid, x2 = 0; for viscosity: Capillary tube (Ostwald / Ubbelohde) method

For `CN(C)C=O` [dimethylformamide], the mass density ([1]; 283.15 K) was 958.96 ± 0.25 kg/m3, the mass density ([1]; 288.15 K) was 954.17 ± 0.26 kg/m3 and the mass density ([1]; 293.15 K) was 949.39 ± 0.27 kg/m3. It also gave a viscosity ([1]; 293.15 K) of 0.864 ± 0.01 mPa·s, a mass density ([1]; 298.15 K) of 944.6 ± 0.27 kg/m3 and a mass density ([1]; 303.15 K) of 939.83 ± 0.28 kg/m3. The viscosity ([1]; 303.15 K) was 0.766 ± 0.009 mPa·s, the mass density ([1]; 308.15 K) was 935.05 ± 0.29 kg/m3 and the mass density ([1]; 313.15 K) was 930.27 ± 0.29 kg/m3. It also gave a viscosity ([1]; 313.15 K) of 0.684 ± 0.009 mPa·s, a mass density ([1]; 318.15 K) of 925.49 ± 0.3 kg/m3 and a mass density ([1]; 323.15 K) of 920.71 ± 0.31 kg/m3. The viscosity ([1]; 323.15 K) was 0.617 ± 0.009 mPa·s, the mass density ([1]; 328.15 K) was 915.92 ± 0.32 kg/m3 and the mass density ([1]; 333.15 K) was 911.13 ± 0.32 kg/m3. The viscosity ([1]; 333.15 K) was 0.559 ± 0.009 mPa·s, the mass density ([1]; 338.15 K) was 906.32 ± 0.33 kg/m3 and the mass density ([1]; 343.15 K) was 901.51 ± 0.34 kg/m3. The viscosity ([1]; 343.15 K) was 0.51 ± 0.009 mPa·s, the mass density ([1]; 348.15 K) was 896.69 ± 0.34 kg/m3 and the mass density ([1]; 353.15 K) was 891.86 ± 0.35 kg/m3. It also gave a viscosity ([1]; 353.15 K) of 0.47 ± 0.009 mPa·s.
`O` [water] + CN(C)C=O showed a mass density ([2]; 283.15 K) of 999.7 ± 0.13 kg/m3, a viscosity ([2]; 293.15 K) of 1.026 ± 0.01 mPa·s and a viscosity ([2]; 303.15 K) of 0.817 ± 0.009 mPa·s. For the same compound, the viscosity ([2]; 313.15 K) was 0.67 ± 0.009 mPa·s, the viscosity ([2]; 323.15 K) was 0.561 ± 0.009 mPa·s and the mass density ([2]; 323.15 K) was 988.03 ± 0.14 kg/m3. It also gave a mass density ([2]; 328.15 K) of 985.69 ± 0.15 kg/m3, a viscosity ([2]; 333.15 K) of 0.48 ± 0.009 mPa·s and a mass density ([2]; 333.15 K) of 983.19 ± 0.15 kg/m3. For the same compound, the mass density ([2]; 338.15 K) was 980.55 ± 0.16 kg/m3, the viscosity ([2]; 343.15 K) was 0.419 ± 0.008 mPa·s and the mass density ([2]; 343.15 K) was 977.76 ± 0.16 kg/m3. It also gave a mass density ([2]; 348.15 K) of 974.84 ± 0.16 kg/m3, a viscosity ([2]; 353.15 K) of 0.371 ± 0.008 mPa·s and a mass density ([2]; 353.15 K) of 971.79 ± 0.17 kg/m3.
